Results on 1 compound are retold here after paper PMC12056086 (Nature Communications, 2025).

In experiment [1] the target is human dopamine transporter (hDAT) (Homo sapiens, UniProt Q01959, G386H).
The target of experiment [2] is human dopamine transporter (hDAT) (Homo sapiens, UniProt Q01959). The experiment can be described thus: cell-based. The note with it: read-out: single-molecule AFM force spectroscopy on live cells.
Experiment [3] concerns the target human dopamine transporter (hDAT) (Homo sapiens, UniProt Q01959, K384A).
Experiment [4] addresses human dopamine transporter (hDAT) (Homo sapiens, UniProt Q01959, K92A).
Experiment [5] deals with human dopamine transporter (hDAT) (Homo sapiens, UniProt Q01959, V152I).
human dopamine transporter (hDAT) (Homo sapiens, UniProt Q01959, V152I), sequence (Q01959 whole entry V152I): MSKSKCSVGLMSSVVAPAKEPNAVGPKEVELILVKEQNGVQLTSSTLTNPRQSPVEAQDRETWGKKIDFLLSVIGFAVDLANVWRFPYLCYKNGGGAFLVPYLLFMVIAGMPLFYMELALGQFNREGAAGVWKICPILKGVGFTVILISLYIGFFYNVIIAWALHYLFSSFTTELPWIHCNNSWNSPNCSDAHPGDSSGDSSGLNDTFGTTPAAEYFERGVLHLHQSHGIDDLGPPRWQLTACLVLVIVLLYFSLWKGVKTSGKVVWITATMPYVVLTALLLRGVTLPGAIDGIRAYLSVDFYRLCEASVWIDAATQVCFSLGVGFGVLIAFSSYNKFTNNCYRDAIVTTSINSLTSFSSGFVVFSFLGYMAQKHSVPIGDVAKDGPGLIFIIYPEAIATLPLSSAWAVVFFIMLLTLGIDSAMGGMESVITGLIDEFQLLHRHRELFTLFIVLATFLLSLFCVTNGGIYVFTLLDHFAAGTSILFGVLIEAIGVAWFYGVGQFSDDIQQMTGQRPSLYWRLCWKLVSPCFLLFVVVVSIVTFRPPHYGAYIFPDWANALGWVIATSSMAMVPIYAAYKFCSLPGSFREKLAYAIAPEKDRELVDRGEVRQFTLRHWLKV

human dopamine transporter (hDAT) (Homo sapiens, UniProt Q01959, G386H), sequence (Q01959 whole entry G386H): as the sequence (Q01959 whole entry V152I) above, with I152V, G386H counted along it
human dopamine transporter (hDAT) (Homo sapiens, UniProt Q01959, K384A), sequence (Q01959 whole entry K384A): as the sequence (Q01959 whole entry V152I) above, with I152V, K384A counted along it
human dopamine transporter (hDAT) (Homo sapiens, UniProt Q01959, K92A), sequence (Q01959 whole entry K92A): as the sequence (Q01959 whole entry V152I) above, with K92A, I152V counted along it
human dopamine transporter (hDAT) (Homo sapiens, UniProt Q01959), sequence (Q01959 whole entry): as the sequence (Q01959 whole entry V152I) above, with I152V counted along it

`NCCc1ccc(O)c(O)c1` [dopamine]: the “single-molecule AFM force spectroscopy on live cells” value is “dopamine was still able to bind to the S2 site of DAT-G386H, albeit with lower binding strength” in experiment [1]; “both K92A and K384A diminished the population of weaker unbinding events, indicating that both lysines are involved in the S2 site” in experiment [3]; “both K92A and K384A diminished the population of weaker unbinding events, indicating that both lysines are involved in the S2 site” in experiment [4]; “(V152I) also reduced the population of stronger binding events (d) while the overall binding activity is preserved” in experiment [5]. Further, the koff in experiment [2] amounted to 0.11 ± 0.03 s⁻¹.
